Converted amounts (≈) assume the structure as drawn.
Tests used:
Assay type in all cases: cell-based
[1] = test system: human lung carcinoma A-549; assay: in vitro antitumour activity in cell cultures of human lung carcinoma A-549; conditions: A549, A-549 cell culture
Method: (§1) The antitumour activities of Mycaperoxide A and Mycaperoxide B have been determined "in vitro" in cell cultures of mouse leukemia P-388, human lung carcinoma A-549 and human colon carcinoma HT-29. The procedure was carried out using the method described by Raymond J. Bergeron et al. Biochem Bioph. Res. Comm. 1984, 121(3), 848-854 and by Alan C Shroeder et al. J. Med. Chem. 1981, 24 1078-1083.

[2] = test system: VSV (Vesicular stomatitis virus); assay: microbe, parasite or virus in culture; conditions: read-out: IC50 VSV
[3] = test system: human colon carcinoma HT-29; assay: in vitro antitumour activity in cell cultures of human colon carcinoma HT-29; conditions: HT-29 cell culture
Method: as §1

[4] = test system: mouse leukemia P-388; assay: in vitro antitumour activity in cell cultures of mouse leukemia P-388; conditions: P388, P-388 cell culture
Method: as §1

| Compound | IC50 [1] | IC50 [2] | IC50 [3] | IC50 [4] |
| --- | --- | --- | --- | --- |
| CC(C(=O)O)C1CCC(C)(CCC2(C)C(C)CCC3C(C)(C)CCCC32O)OO1 (centres unmarked) [Mycaperoxide A, mycaperoxide A] | 0.5 µg/mL (≈ 1.22 µM) | 2 µg/mL (≈ 4.87 µM) | 0.5 µg/mL (≈ 1.22 µM) | 0.5 µg/mL (≈ 1.22 µM) |
| CC(C(=O)O)C1CCC(C)(CCC2(O)C(C)CCC3C(C)(C)CCCC32C)OO1 (centres unmarked) [Mycaperoxide B, mycaperoxide B] | 1 µg/mL (≈ 2.44 µM) | 4 µg/mL (≈ 9.74 µM) | 1 µg/mL (≈ 2.44 µM) | 1 µg/mL (≈ 2.44 µM) |

— patent US5449684A (priority 1993, dated 1995)
